Target: T1, Mouse TMEM16A (Mus musculus, UniProt Q8BHY3)
T1 construct: expressed in transfected cells; host or cells: HEK-293T
T1 sequence (Q8BHY3 1-960): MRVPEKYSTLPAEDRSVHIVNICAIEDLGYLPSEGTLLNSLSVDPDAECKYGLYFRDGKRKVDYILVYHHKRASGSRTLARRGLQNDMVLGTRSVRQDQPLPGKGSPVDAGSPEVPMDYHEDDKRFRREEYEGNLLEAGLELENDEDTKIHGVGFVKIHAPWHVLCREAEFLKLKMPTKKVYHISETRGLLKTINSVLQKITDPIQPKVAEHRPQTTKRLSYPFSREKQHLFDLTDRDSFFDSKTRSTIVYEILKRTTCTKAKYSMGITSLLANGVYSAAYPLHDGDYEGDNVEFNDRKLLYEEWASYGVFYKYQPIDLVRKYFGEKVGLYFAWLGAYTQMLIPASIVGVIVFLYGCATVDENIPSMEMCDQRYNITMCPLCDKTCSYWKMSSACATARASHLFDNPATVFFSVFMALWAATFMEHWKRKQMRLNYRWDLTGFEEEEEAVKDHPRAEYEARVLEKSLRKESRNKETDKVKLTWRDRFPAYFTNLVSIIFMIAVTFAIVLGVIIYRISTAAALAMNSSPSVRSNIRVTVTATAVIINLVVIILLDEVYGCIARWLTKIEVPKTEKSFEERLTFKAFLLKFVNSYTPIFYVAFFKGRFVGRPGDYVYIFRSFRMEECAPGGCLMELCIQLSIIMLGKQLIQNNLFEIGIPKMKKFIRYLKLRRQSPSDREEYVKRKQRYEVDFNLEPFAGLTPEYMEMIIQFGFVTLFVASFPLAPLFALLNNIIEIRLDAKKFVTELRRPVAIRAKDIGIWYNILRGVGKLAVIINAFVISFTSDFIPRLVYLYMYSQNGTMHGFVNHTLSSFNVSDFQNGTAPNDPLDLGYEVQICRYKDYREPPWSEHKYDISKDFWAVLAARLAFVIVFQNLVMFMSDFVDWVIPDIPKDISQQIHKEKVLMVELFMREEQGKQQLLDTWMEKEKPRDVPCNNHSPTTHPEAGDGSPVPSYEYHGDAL
Test: Whole-cell TMEM16A current in the absence of [Ca2+]i
Format: cell-based
Conditions: 3000 μM extracellular A9C
Experimental: Current versus V m relationships were constructed by measuring currents in response to 1 s V m steps (test pulses) from −100 to +100 mV in 40 mV increments (unless stated otherwise) after a 1 s V m step to +70 mV (pre‐pulse). Pulses were elicited every 2 s from a holding V m of 0 mV. Steady‐state currents were measured at the end of the test pulses. As detailed in the Results, in the presence of 300 nM [Ca^2+]i and extracellular A9C, the test‐pulse currents reached a peak within the first ~50 ms of the test pulse. These peak currents were also measured and plotted against the V m of the test pulse. Current density was obtained by dividing the current amplitude for the cell capacitance.
The gating of TMEM16A channels is modulated by changes in [Ca^2+]i and V m. To study the effect of A9C on the intrinsic V m‐dependence of the channel, extracellular A9C (3000 μM) was applied during whole‐cell patch‐clamp in the absence of [Ca^2+]i (Figure 9). The stimulation protocol was similar to that used in Figure 1. However, because TMEM16A current in the absence of [Ca^2+]i are evident at V m greater than ~100 mV (Xiao et al., 2011), test pulses were elicited up to a value of +140 mV. Consistent with previous studies (Xiao et al., 2011), TMEM16A current in the absence of [Ca^2+]i appeared almost instantaneously in response to strong depolarizations (Figure 9). […]

tail currents at negative Vm: no large increase
TMEM16A current density (+140 mV, control 13.0 ± 4.0): 7.3 ± 3.8 pA∙pF^−1
Structure (SMILES): O=C(O)c1c2ccccc2cc2ccccc12 [A9C, Anthracene‐9‐carboxylic acid]
